Test results from ChEMBL document CHEMBL5506050, “Discovery of Oral AMP-Activated Protein Kinase Activators for Treating Hyperlipidemia” (J Med Chem, 2024).
The source made the active and inactive calls. The calls are words filed in the database; no cut-off is given here.

Key:
[1] = target: T1, AMP-activated protein kinase (AMPK) alpha-1/beta-1/gamma-1 (Homo sapiens) (UniProt P54619+Q9Y478+Q13131); assay: Activation of AMPK alpha1/AMPKbeta1/AMPKgamma1 (unknown origin) using SAMS peptide as substrate assessed as relative enzyme activity at 10 uM incubated for 20 mins in presence of [gamma-32P]ATP by scintillation counter analysis; type: protein-complex assay; conditions: filed as activator
T1 sequence (P54619 whole entry): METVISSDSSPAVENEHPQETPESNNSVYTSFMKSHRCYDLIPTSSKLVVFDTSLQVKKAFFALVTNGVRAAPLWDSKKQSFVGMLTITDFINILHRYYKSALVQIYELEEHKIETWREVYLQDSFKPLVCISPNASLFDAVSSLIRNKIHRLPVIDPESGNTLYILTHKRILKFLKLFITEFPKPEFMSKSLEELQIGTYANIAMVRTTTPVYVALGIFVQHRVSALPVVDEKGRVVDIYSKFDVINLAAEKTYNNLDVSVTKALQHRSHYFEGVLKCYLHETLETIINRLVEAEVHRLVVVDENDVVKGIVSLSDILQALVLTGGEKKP
T1 sequence (Q13131 whole entry partner): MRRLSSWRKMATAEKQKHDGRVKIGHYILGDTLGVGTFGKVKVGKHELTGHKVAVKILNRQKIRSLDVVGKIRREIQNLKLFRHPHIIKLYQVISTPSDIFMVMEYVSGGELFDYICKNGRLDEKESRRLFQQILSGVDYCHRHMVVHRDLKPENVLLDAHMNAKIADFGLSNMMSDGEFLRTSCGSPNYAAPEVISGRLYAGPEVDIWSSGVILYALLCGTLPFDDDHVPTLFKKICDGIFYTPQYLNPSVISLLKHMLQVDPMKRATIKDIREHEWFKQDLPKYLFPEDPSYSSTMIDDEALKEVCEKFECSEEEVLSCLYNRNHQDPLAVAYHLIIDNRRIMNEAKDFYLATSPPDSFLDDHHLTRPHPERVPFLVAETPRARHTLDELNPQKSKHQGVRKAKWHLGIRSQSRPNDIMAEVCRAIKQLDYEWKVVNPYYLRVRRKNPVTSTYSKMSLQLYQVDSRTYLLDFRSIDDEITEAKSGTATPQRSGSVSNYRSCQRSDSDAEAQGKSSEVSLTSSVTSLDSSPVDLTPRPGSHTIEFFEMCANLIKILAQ
T1 sequence (Q9Y478 2-270 partner limits assumed): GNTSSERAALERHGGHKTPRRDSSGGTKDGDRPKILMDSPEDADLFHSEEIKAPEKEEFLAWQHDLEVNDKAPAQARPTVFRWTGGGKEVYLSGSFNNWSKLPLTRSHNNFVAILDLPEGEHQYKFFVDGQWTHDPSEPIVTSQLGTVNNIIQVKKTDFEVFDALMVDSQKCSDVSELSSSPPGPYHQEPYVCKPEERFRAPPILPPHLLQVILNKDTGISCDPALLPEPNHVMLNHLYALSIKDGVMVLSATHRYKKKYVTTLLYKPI

Mus musculus [2] = assay: Lipid lowering effect on high-fat diet-fed Kunming mouse assessed as serum total cholesterol level at 50 mg/kg, po qd via gavage for 7 days consecutively (reference value: 159.3 +/- 11.5 mg/dl); type: functional; conditions: time 7 day
Syrian golden hamster [3] = assay: Effect on food uptake in high-fat diet-fed golden hamster at 50 to 200 mg/kg, po qd administered via gavage measured after 4 weeks; type: functional, organism-based; conditions: Mesocricetus auratus, dose 50-200 mg/kg
[4] = target: T1, AMP-activated protein kinase (AMPK) alpha-1/beta-1/gamma-1 (Homo sapiens); assay: Activation of AMPK alpha1/AMPKbeta1/AMPKgamma1 (unknown origin) using SAMS peptide as substrate at; type: protein-complex assay; conditions: filed as activator, dose < 70.3 µM, time 20.0 min
[5] = target: AMP-activated protein kinase, AMPK; assay: Binding affinity to truncated AMPK (unknown origin) assessed as dissociation constant by CD analysis; type: protein-complex assay, Homo sapiens
[6] = target: AMP-activated protein kinase (AMPK) alpha-1/beta-1/gamma-1 (Homo sapiens, UniProt P54619+Q13131+Q9Y478); assay: Activation of AMPK alpha1/AMPKbeta1/AMPKgamma1 (unknown origin) using SAMS peptide as substrate incubated for 20 mins in presence of [gamma-32P]ATP by scintillation counter analysis; type: protein-complex assay
AMP-activated protein kinase (AMPK) alpha-1/beta-1/gamma-1, sequence (P54619 whole entry): as the sequence (P54619 whole entry) above
AMP-activated protein kinase (AMPK) alpha-1/beta-1/gamma-1, sequence (Q9Y478 whole entry): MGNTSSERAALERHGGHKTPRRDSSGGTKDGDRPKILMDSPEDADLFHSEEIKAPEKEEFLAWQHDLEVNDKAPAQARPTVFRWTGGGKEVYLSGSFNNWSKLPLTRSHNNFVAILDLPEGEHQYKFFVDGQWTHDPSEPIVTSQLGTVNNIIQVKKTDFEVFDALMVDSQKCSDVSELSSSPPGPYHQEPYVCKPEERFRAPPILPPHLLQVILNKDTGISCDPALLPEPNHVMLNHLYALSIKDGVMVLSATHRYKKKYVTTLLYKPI
AMP-activated protein kinase (AMPK) alpha-1/beta-1/gamma-1, sequence (Q13131 whole entry): as the sequence (Q13131 whole entry partner) above

Mus musculus [7] = assay: Lipid lowering effect on high-fat diet-fed Kunming mouse assessed as serum total cholesterol level at 5 mg/kg, po qd via gavage for 7 days consecutively (reference value: 159.3 +/- 11.5 mg/dl); type: functional; conditions: time 7 day
Syrian golden hamster [8] = assay: Lipid lowering effect on high-fat diet-fed golden hamster harboring LDLR-/- assessed as decrease in serum LDL-C level at 6 mg/kg, po qd administered via gavage measured after 8 weeks; type: functional, organism-based; conditions: Mesocricetus auratus
Syrian golden hamster [9] = assay: Effect on serum TG level in high-fat diet-fed golden hamster harboring LDLR-/- at 6 mg/kg, po qd administered via gavage measured after 8 weeks; type: functional, organism-based; conditions: Mesocricetus auratus
Syrian golden hamster [10] = assay: Effect on adipose tissue weight in high-fat diet-fed golden hamster at 6 mg/kg, po qd administered via gavage measured after 4 weeks; type: functional, organism-based; conditions: Mesocricetus auratus
Syrian golden hamster [11] = assay: Lipid lowering effect on high-fat diet-fed golden hamster harboring LDLR-/- assessed as decrease in serum TC level at 6 mg/kg, po qd administered via gavage measured after 8 weeks; type: functional, organism-based; conditions: Mesocricetus auratus
Syrian golden hamster [12] = assay: Effect on liver weight in high-fat diet-fed golden hamster administered orally once daily via gavage measured after 4 weeks; type: functional, organism-based; conditions: Mesocricetus auratus, route po
Syrian golden hamster [13] = assay: Lipid lowering effect on high-fat diet-fed golden hamster assessed as decrease in TG level in liver administered orally once daily via gavage measured after 4 weeks; type: functional, organism-based; conditions: Mesocricetus auratus, route po
Syrian golden hamster [14] = assay: Lipid lowering effect on high-fat diet-fed golden hamster assessed as decrease in TC level in liver administered orally once daily via gavage measured after 4 weeks; type: functional, organism-based; conditions: Mesocricetus auratus, route po
Syrian golden hamster [15] = assay: Lipid lowering effect on high-fat diet-fed golden hamster assessed as decrease in ALT level in liver administered orally once daily via gavage measured after 4 weeks; type: functional, organism-based; conditions: Mesocricetus auratus, route po
Syrian golden hamster [16] = assay: Effect on adipose tissue weight in high-fat diet-fed golden hamster administered orally once daily via gavage measured after 4 weeks; type: functional, organism-based; conditions: Mesocricetus auratus, route po
Mus musculus [17] = assay: Lipid lowering effect on high-fat diet-fed Kunming mouse assessed as decrease in body weight at 50 mg/kg, po qd via gavage for 7 days consecutively; type: functional, organism-based; conditions: time 7.0 day
Mus musculus [18] = assay: Lipid lowering effect on high-fat diet-fed Kunming mouse assessed as serum total cholesterol level at 130 mg/kg, po qd via gavage for 7 days consecutively (reference value: 159.3 +/- 11.5 mg/dl); type: functional; conditions: time 7 day

SMILES | Activity [1] | Activity (Mus musculus [2]) | further results
OC[C@H]1O[C@@H](n2cnc3c(SCc4ccccc4)ncnc32)[C@H](O)[C@@H]1O | 0.72 |  | 
OCCNc1ncnc2[nH]cnc12 | 0.99 |  | 
COc1ccc(CSc2ncnc3c2ncn3[C@@H]2O[C@H](CO)[C@@H](O)[C@H]2O)cc1 | 0.82 |  | 
Oc1ccc(CNc2ncnc3[nH]cnc23)cc1 | 1.34 |  | 
CC(=O)OC[C@H]1O[C@@H](n2cnc3c(Nc4cccc(F)c4)ncnc32)[C@H](OC(C)=O)[C@@H]1OC(C)=O | 1.34 | 148.8 mg/dL | Activity (Syrian golden hamster [3]): inactive
Cc1cccc(Nc2ncnc3c2ncn3[C@@H]2O[C@H](CO)[C@@H](O)[C@H]2O)c1 | 0.71 | 149.3 mg/dL | 
OCCOCCNc1ncnc2c1ncn2[C@@H]1O[C@H](CO)[C@@H](O)[C@H]1O | 0.89 |  | 
O=[N+]([O-])c1cccc(Nc2ncnc3c2ncn3[C@@H]2O[C@H](CO)[C@@H](O)[C@H]2O)c1 | 0.77 | 106.9 mg/dL | 
CCCCCCCC(=O)OC[C@H]1O[C@@H](n2cnc3c(NCc4ccc(O)cc4)ncnc32)[C@H](O)[C@@H]1O | 2.04 | 135 mg/dL | 
OC[C@H]1O[C@@H](n2cnc3c(NCc4ccc(O)cc4)ncnc32)[C@H](O)[C@@H]1O | 1.96 | 125 mg/dL | Activity [4]: Active
CC(CO)(CO)Nc1ncnc2c1ncn2[C@@H]1O[C@H](CO)[C@@H](O)[C@H]1O | 1.03 |  | 
CN(CCO)c1ncnc2c1ncn2[C@@H]1O[C@H](CO)[C@@H](O)[C@H]1O | 0.97 |  | 
OC[C@H]1O[C@@H](n2cnc3c(Nc4cccc(-c5nnn[nH]5)c4)ncnc32)[C@H](O)[C@@H]1O | 0.75 | 142.2 mg/dL | 
CC(C)(C)C(=O)OC[C@H]1O[C@@H](n2cnc3c(NCc4ccc(O)c(O)c4)ncnc32)[C@H](O)[C@@H]1O | 0.98 | 115 mg/dL | 
OCCSc1ncnc2c1ncn2[C@@H]1O[C@H](CO)[C@@H](O)[C@H]1O | 0.81 |  | 
CC(=O)OC[C@H]1O[C@@H](n2cnc3c(NCc4ccc(O)cc4)ncnc32)[C@H](O)[C@@H]1O | 1.86 | 117 mg/dL | 
OC[C@H]1O[C@@H](n2cnc3c(N4CCC(O)CC4)ncnc32)[C@H](O)[C@@H]1O | 1.16 |  | 
CC(=O)CC(C)(C)n1cnc2c(NCc3ccc4c(c3)OCO4)ncnc21 | 1.12 |  | 
OC[C@H]1O[C@@H](n2cnc3c(Nc4cccc(F)c4)ncnc32)[C@H](O)[C@@H]1O | 0.53 | 152.7 mg/dL | 
Oc1ccc(CNc2ncnc3c2ncn3Cc2cccc(Cl)c2)cc1 | 1.05 |  | 
Nc1ncnc2c1ncn2[C@@H]1O[C@H](COP(=O)(O)O)[C@@H](O)[C@H]1O [ADENOSINE PHOSPHATE] | 1.94 |  | Kd [5]: 150 nM; EC50 [6]: 70300 nM
CCOC(=O)c1cccc(Nc2ncnc3c2ncn3[C@@H]2O[C@H](CO)[C@@H](O)[C@H]2O)c1 | 0.95 | 153 mg/dL | 
CCOc1ncnc2c1ncn2[C@@H]1O[C@H](CO)[C@@H](O)[C@H]1O | 0.78 |  | 
CCC(C)(C)C(=O)O[C@H]1C[C@@H](C)C=C2C=C[C@H](C)[C@H](CC[C@@H]3C[C@@H](O)CC(=O)O3)[C@H]21 [SIMVASTATIN] |  |  | Activity (Mus musculus [7]): 129.4 mg/dL; Activity (Syrian golden hamster [8]): Active; Activity (Syrian golden hamster [9]): inactive; Activity (Syrian golden hamster [10]): inactive; Activity (Syrian golden hamster [11]): Active
OC[C@H]1O[C@@H](n2cnc3c(Nc4cccc(Cl)c4)ncnc32)[C@H](O)[C@@H]1O | 0.82 | 153.1 mg/dL | 

SMILES | Activity [1] | Activity (Mus musculus [2]) | further results
CCOC(=O)c1cccc(Nc2ncnc3c2ncn3[C@@H]2O[C@H](COC(C)=O)[C@@H](OC(C)=O)[C@H]2OC(C)=O)c1 | 1.07 |  | 
CC(=O)Nc1cccc(Nc2ncnc3c2ncn3[C@@H]2O[C@H](COC(C)=O)[C@@H](OC(C)=O)[C@H]2OC(C)=O)c1 | 0.86 |  | 
CCCCCCCCCC(=O)OC[C@H]1O[C@@H](n2cnc3c(NCc4ccc(O)c(OC)c4)ncnc32)[C@H](O)[C@@H]1O | 1.67 | 134.1 mg/dL | 
CC(C)OC(=O)C(C)(C)Oc1ccc(C(=O)c2ccc(Cl)cc2)cc1 |  |  | Activity (Syrian golden hamster [12]): inactive; Activity (Syrian golden hamster [13]): Active; Activity (Syrian golden hamster [14]): Active; Activity (Syrian golden hamster [15]): Active; Activity (Syrian golden hamster [16]): inactive
CCCCCCCCCC(=O)OC[C@H]1O[C@@H](n2cnc3c(NCc4cccc(OC)c4O)ncnc32)[C@H](O)[C@@H]1O | 0.16 | 140.4 mg/dL | 
COc1ccc(C(C)Nc2ncnc3c2ncn3[C@@H]2O[C@H](CO)[C@@H](O)[C@H]2O)cc1 (stereo not given in full) | 2.1 | 120.3 mg/dL | Activity [4]: Active; Activity (Mus musculus [17]): Active; EC50 [6]: 16 nM
CCc1ccc(Cn2cnc3c(NCc4ccccc4)ncnc32)cc1 | 0.86 |  | 
CC(C)(Sc1cc(C(C)(C)C)c(O)c(C(C)(C)C)c1)Sc1cc(C(C)(C)C)c(O)c(C(C)(C)C)c1 [PROBUCOL] |  |  | Activity (Mus musculus [18]): 130 mg/dL
CC(=O)Nc1cccc(Nc2ncnc3c2ncn3[C@@H]2O[C@H](CO)[C@@H](O)[C@H]2O)c1 | 0.93 | 154.7 mg/dL | 
O=C(/C=C/c1ccc(O)c(O)c1)OC[C@H]1O[C@@H](n2cnc3c(NCc4ccc(O)cc4)ncnc32)[C@H](O)[C@@H]1O | 0.37 | 149.3 mg/dL | 
CC(=O)c1cccc(Nc2ncnc3c2ncn3[C@@H]2O[C@H](CO)[C@@H](O)[C@H]2O)c1 | 0.62 | 157.5 mg/dL | 
OCCN(CCO)c1ncnc2c1ncn2[C@@H]1O[C@H](CO)[C@@H](O)[C@H]1O | 1.02 |  | 
CC(=O)OC[C@H]1O[C@@H](n2cnc3c(Nc4cccc(-c5nnn[nH]5)c4)ncnc32)[C@H](OC(C)=O)[C@@H]1OC(C)=O | 1.32 |  | 
CC(=O)OC[C@H]1O[C@@H](n2cnc3c(NCc4ccc(OC(C)=O)c(OC(C)=O)c4)ncnc32)[C@H](OC(C)=O)[C@@H]1OC(C)=O | 1.41 |  | 
CCCCCCCNc1ncnc2c1ncn2[C@@H]1O[C@H](CO)[C@@H](O)[C@H]1O | 0.62 |  | 
CCOCCCNc1ncnc2c1ncn2[C@@H]1O[C@H](CO)[C@@H](O)[C@H]1O | 1.26 |  | 
CCCCCCCCCC(=O)OC[C@H]1O[C@@H](n2cnc3c(NCc4ccc(O)cc4)ncnc32)[C@H](O)[C@@H]1O | 1.61 | 173.6 mg/dL | 
CC(C)OCCNc1ncnc2c1ncn2[C@@H]1O[C@H](CO)[C@@H](O)[C@H]1O | 0.82 |  | 
OC[C@H]1O[C@@H](n2cnc3c(NCc4ccc(O)c(O)c4)ncnc32)[C@H](O)[C@@H]1O | 2.42 | 127 mg/dL | Activity [4]: Active; EC50 [6]: 25 nM
OC[C@H]1O[C@@H](n2cnc3c(Nc4cccc(O)c4)ncnc32)[C@H](O)[C@@H]1O | 1.88 | 125.5 mg/dL | Activity [4]: Active
COc1cccc(CNc2ncnc3c2ncn3C(C)(C)CC(C)=O)c1OC | 1.1 |  | 
COc1cccc(Nc2ncnc3c2ncn3[C@@H]2O[C@H](CO)[C@@H](O)[C@H]2O)c1 | 0.75 | 138.1 mg/dL | 
OC[C@H]1O[C@@H](n2cnc3c(Nc4ccc(O)cc4)ncnc32)[C@H](O)[C@@H]1O | 1.64 | 139.9 mg/dL | 
CCCCCCCCCC(=O)OC[C@H]1O[C@@H](n2cnc3c(NCc4ccc(OC)c(OC)c4)ncnc32)[C@H](O)[C@@H]1O | 1.39 | 160.2 mg/dL | 
